Results as given in paper PMC3641313 (Korean Journal of Pediatrics, 2013).
Entries after “also recorded” stand apart in the source; their conditions may differ. Read-outs that look alike come from different tables or passages of the source.

Test system: viral NA of influenza A/H1N1
Assay type: biochemical, influenza A/H1N1 virus

SMILES	resistance of influenza A/H1N1 isolates	sensitivity or resistance of isolates by IC50 criteria	sensitivity or resistance of isolates by IC50 criteria (A/H1N1, first study period, both groups, […])	sensitivity or resistance of isolates by IC50 criteria (A/H1N1, second study period, both groups, […])
CC(=O)N[C@H]1[C@H]([C@H](O)[C@H](O)CO)OC(C(=O)O)=C[C@@H]1N=C(N)N [Zanamivir]	no zanamivir resistance	sensitivity; also recorded: sensitive		
CCOC(=O)C1=C[C@@H](OC(CC)CC)[C@H](NC(C)=O)[C@@H](N)C1 [Oseltamivir]			sensitivity	high-level drug resistance
